From patent US20240376085A1 (Janssen Pharmaceutica NV, priority 2021, published 2024)
pIC50: −log10 of the molar value.

How the values were obtained:
[1] = biological target: T1, IL-17A : IL-17RA binding (Homo sapiens, UniProt Q16552, K93Q); assay: IL-17A(FLAG-tagged):IL-17RA(His-tagged) binding disruption Eu-HTRF assay, Protocol 1; details: FLAG-IL-17A 2.5 nM at 2x final concentration; average if tested more than once
T1 construct: Name: IL-17A-Flag
Procedure, shortened: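 IC50 came from a one-site competition fit of the acceptor/donor (665/620 nm) HTRF ratio. His-tagged IL-17RA, Eu-anti-FLAG and D2-anti-His were added after a 1 h rt compound preincubation with FLAG-tagged IL-17A dimer in PBS/0.01% Triton X-100, followed by 2 h at rt before reading.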

[2] = system: IL-17A-induced G-CSF production in human normal keratinocyte (NHK); assay: NHK assay: IL-17A-induced G-CSF production in normal human keratinocytes; type: cell-based; details: IL-17A 5 ng/mL, 24 h, average if tested more than once
Procedure, shortened: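 Stimulus rhIL-17A 5 ng/mL final, premixed 1 h rt with compound; adult NHK, 5% FBS, 0.2% DMSO. Viability by CellTiter-Glo vs DMSO.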

T1 sequence (Q16552 with tags, fused parts or gaps K93Q): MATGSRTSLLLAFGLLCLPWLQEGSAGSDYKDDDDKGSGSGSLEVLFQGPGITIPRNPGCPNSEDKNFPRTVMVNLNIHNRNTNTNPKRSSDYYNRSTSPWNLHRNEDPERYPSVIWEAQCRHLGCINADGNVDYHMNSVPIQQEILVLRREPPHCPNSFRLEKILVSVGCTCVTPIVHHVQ

SMILES | pIC50 [1] | pIC50 [2] | pIC50 ([2]; Homo sapiens, Keratinocyte)
CC(CC(=O)N[C@H](C)c1ccc2nc([C@@H](NC(=O)c3ccnn3CC(F)(F)F)C3CCC(F)(F)CC3)[nH]c2c1)C(F)(F)F (single isomer, unassigned) [Example 137, N—((S)-(4,4-Difluorocyclohexyl)(6-((R)-1-((S*)-4,4,4-trifluoro-3-methylbutanamido)ethyl)-1H-benzo[d]imidazol-2-yl)methyl)-1-(2,2,2-trifluoroethyl)-1H-pyrazole-5-carboxamide] | < 7.00 | 7.00 to 7.30 | –
CC(CC(=O)N[C@H](C)c1ccc2nc([C@@H](NC(=O)c3ccnn3CCC(F)(F)F)C3CCC(F)(F)CC3)[nH]c2c1)C(F)(F)F (single isomer, unassigned) [Example 138, N—((S)-(4,4-Difluorocyclohexyl)(6-((R)-1-((S*)-4,4,4-trifluoro-3-methylbutanamido)ethyl)-1H-benzo[d]imidazol-2-yl)methyl)-1-(3,3,3-trifluoropropyl)-1H-pyrazole-5-carboxamide] | < 7.00 | 7.00 to 7.30 | –
CC(C)n1nccc1C(=O)N[C@H](c1nc2ccc([C@@H](C)NC(=O)CC(C)C(F)(F)F)cc2[nH]1)C1CCC(F)(F)CC1 (single isomer, unassigned) [Example 139, N—((S)-(4,4-Difluorocyclohexyl)(6-((R)-1-((S*)-4,4,4-trifluoro-3-methylbutanamido)ethyl)-1H-benzo[d]imidazol-2-yl)methyl)-1-isopropyl-1H-pyrazole-5-carboxamide] | < 7.00 | > 7.30 | –
CC(CC(=O)N[C@H](C)c1ccc2nc([C@@H](NC(=O)c3cc(F)ccc3F)C3CCC(F)(F)CC3)[nH]c2c1)C(F)(F)F (single isomer, unassigned) [Example 140, N—((S)-(4,4-Difluorocyclohexyl)(6-((R)-1-((S*)-4,4,4-trifluoro-3-methylbutanamido)ethyl)-1H-benzo[d]imidazol-2-yl)methyl)-2,5-difluorobenzamide] | < 7.00 | < 7.00 | –
CC(C)n1nccc1C(=O)NC(COC(C)(C)C(C)(F)F)c1nc2ccc([C@H](NC(=O)CC3CC(F)(F)C3)C3CC3)cc2[nH]1 (single isomer, unassigned) [Example 149, N—((R*)-1-(6-((R)-Cyclopropyl(2-(3,3-difluorocyclobutyl)acetamido)methyl)-1H-benzo[d]imidazol-2-yl)-2-((3,3-difluoro-2-methylbutan-2-yl)oxy)ethyl)-1-isopropyl-1H-pyrazole-5-carboxamide] | < 7.00 | – | > 7.30
CC(C)n1nccc1C(=O)NC(CO[C@H](C)C(F)(F)F)c1nc2ccc([C@H](NC(=O)CC3CC(F)(F)C3)C3CC3)cc2[nH]1 (single isomer, unassigned) [Example 157, N—((R*)-1-(6-((R)-Cyclopropyl(2-(3,3-difluorocyclobutyl)acetamido)methyl)-1H-benzo[d]imidazol-2-yl)-2-(((R)-1,1,1-trifluoropropan-2-yl)oxy)ethyl)-1-isopropyl-1H-pyrazole-5-carboxamide] | > 7.30 | – | 7.00 to 7.30
CC(C)n1nccc1C(=O)NC(COC(C)(C)C(F)(F)F)c1nc2ccc([C@H](NC(=O)CC3CC(F)(F)C3)C3CC3)cc2[nH]1 (single isomer, unassigned) [Example 162, N—((S*)-1-(6-((R)-Cyclopropyl(2-(3,3-difluorocyclobutyl)acetamido)methyl)-1H-benzo[d]imidazol-2-yl)-2-((1,1,1-trifluoro-2-methylpropan-2-yl)oxy)ethyl)-1-isopropyl-1H-pyrazole-5-carboxamide] | < 7.00 | – | < 7.00
COCC(NC(=O)CC1CC(F)(F)C1)c1ccc2[nH]c([C@H](COC(C)(C)C(F)(F)F)NC(=O)c3nonc3C3CC3)nc2c1 (single isomer, unassigned) [Example 165, 4-Cyclopropyl-N—((R)-1-(5-((S*)-1-(2-(3,3-difluorocyclobutyl)acetamido)-2-methoxyethyl)-1H-benzo[d]imidazol-2-yl)-2-((1,1,1-trifluoro-2-methylpropan-2-yl)oxy)ethyl)-1,2,5-oxadiazole-3-carboxamide] | < 7.00 | – | < 7.00
CC(CC(=O)N[C@@H](c1ccc2[nH]c([C@H](COC(C)(C)C(F)(F)F)NC(=O)c3nonc3C3CC3)nc2c1)C1CC1)C(F)F (single isomer, unassigned) [Example 175, 4-Cyclopropyl-N—((R)-1-(5-((R)-cyclopropyl((R*)-4,4-difluoro-3-methylbutanamido)methyl)-1H-benzo[d]imidazol-2-yl)-2-((1,1,1-trifluoro-2-methylpropan-2-yl)oxy)ethyl)-1,2,5-oxadiazole-3-carboxamide] | > 7.30 | – | < 7.00
CC(CC(=O)N[C@@H](c1ccc2[nH]c([C@H](COC(C)(C)C(F)(F)F)NC(=O)c3nonc3C3CC3)nc2c1)C1CC1)C(F)F (single isomer, unassigned) [Example 176, 4-Cyclopropyl-N—((R)-1-(5-((R)-cyclopropyl((S*)-4,4-difluoro-3-methylbutanamido)methyl)-1H-benzo[d]imidazol-2-yl)-2-((1,1,1-trifluoro-2-methylpropan-2-yl)oxy)ethyl)-1,2,5-oxadiazole-3-carboxamide] | > 7.30 | < 7.00 | –
Cc1nonc1C(=O)N[C@@H](CC(C)(C)C(F)(F)F)c1nc2ccc([C@H](NC(=O)CC(C)C(F)(F)F)C3CC3)cc2[nH]1 (single isomer, unassigned) [Example 179, N—((S)-1-(6-((R)-Cyclopropyl((R*)-4,4,4-trifluoro-3-methylbutanamido)methyl)-1H-benzo[d]imidazol-2-yl)-4,4,4-trifluoro-3,3-dimethylbutyl)-4-methyl-1,2,5-oxadiazole-3-carboxamide] | > 7.30 | – | < 7.00

Continued, in another order:

pIC50 [1] | SMILES | pIC50 [2] | pIC50 ([2]; Homo sapiens, Keratinocyte)
> 7.30 | CC(OCC(NC(=O)c1nonc1C1CC1)c1nc2ccc([C@H](NC(=O)CC3CC(F)(F)C3)C3CC3)cc2[nH]1)C(F)(F)F (single isomer, unassigned) [Example 153, 4-Cyclopropyl-N-((1R*)-1-(6-((R)-cyclopropyl(2-(3,3-difluorocyclobutyl)acetamido)methyl)-1H-benzo[d]imidazol-2-yl)-2-((1,1,1-trifluoropropan-2-yl)oxy)ethyl)-1,2,5-oxadiazole-3-carboxamide] | – | < 7.00
> 7.30 | C[C@H](OCC(NC(=O)c1nonc1C1CC1)c1nc2ccc([C@H](NC(=O)CC3CC(F)(F)C3)C3CC3)cc2[nH]1)C(F)(F)F (single isomer, unassigned) [Example 154, 4-Cyclopropyl-N—((R*)-1-(6-((R)-cyclopropyl(2-(3,3-difluorocyclobutyl)acetamido)methyl)-1H-benzo[d]imidazol-2-yl)-2-(((S)-1,1,1-trifluoropropan-2-yl)oxy)ethyl)-1,2,5-oxadiazole-3-carboxamide] | – | 7.00 to 7.30
< 7.00 | CC(C)(OCC(NC(=O)c1nonc1C1CC1)c1nc2ccc([C@H](NC(=O)CC3CC(F)(F)C3)C3CC3)cc2[nH]1)C(F)(F)F (single isomer, unassigned) [Example 163, 4-Cyclopropyl-N—((S*)-1-(6-((R)-cyclopropyl(2-(3,3-difluorocyclobutyl)acetamido)methyl)-1H-benzo[d]imidazol-2-yl)-2-((1,1,1-trifluoro-2-methylpropan-2-yl)oxy)ethyl)-1,2,5-oxadiazole-3-carboxamide] | – | < 7.00
< 7.00 | CC(C)n1nccc1C(=O)N[C@H](c1nc2ccc([C@H](NC(=O)CC3CC(F)(F)C3)C3CC3)cc2[nH]1)C1CC(F)(F)CCO1 (single isomer, unassigned) [Example 172, N—((R)-(6-((R)-Cyclopropyl(2-(3,3-difluorocyclobutyl)acetamido)methyl)-1H-benzo[d]imidazol-2-yl)((S*)-4,4-difluorotetrahydro-2H-pyran-2-yl)methyl)-1-isopropyl-1H-pyrazole-5-carboxamide] | – | > 7.30
< 7.00 | Cc1nonc1C(=O)N[C@H](c1nc2ccc([C@H](NC(=O)CC3CC(F)(F)C3)C3CC3)cc2[nH]1)C1CCOC(C)(C)C1 (single isomer, unassigned) [Example 173, N—((S)-(6-((R)-Cyclopropyl(2-(3,3-difluorocyclobutyl)acetamido)methyl)-1H-benzo[d]imidazol-2-yl)((S*)-2,2-dimethyltetrahydro-2H-pyran-4-yl)methyl)-4-methyl-1,2,5-oxadiazole-3-carboxamide] | – | < 7.00
< 7.00 | Cc1nonc1C(=O)N[C@H](c1nc2ccc([C@H](NC(=O)CC3CC(F)(F)C3)C3CC3)cc2[nH]1)C1CCOC(C)(C)C1 (single isomer, unassigned) [Example 174, N—((S)-(6-((R)-Cyclopropyl(2-(3,3-difluorocyclobutyl)acetamido)methyl)-1H-benzo[d]imidazol-2-yl)((R*)-2,2-dimethyltetrahydro-2H-pyran-4-yl)methyl)-4-methyl-1,2,5-oxadiazole-3-carboxamide] | 7.00 to 7.30 | –
7.00 to 7.30 | Cc1nonc1C(=O)N[C@@H](CC(C)(C)C(F)(F)F)c1nc2ccc([C@H](NC(=O)CC(C)C(F)(F)F)C3CC3)cc2[nH]1 (single isomer, unassigned) [Example 180, N—((S)-1-(6-((R)-Cyclopropyl((S*)-4,4,4-trifluoro-3-methylbutanamido)methyl)-1H-benzo[d]imidazol-2-yl)-4,4,4-trifluoro-3,3-dimethylbutyl)-4-methyl-1,2,5-oxadiazole-3-carboxamide] | < 7.00 | –
